Assay results as given in the NIST ThermoML archive (doi:10.1016/j.jct.2018.11.010).

Assay: xn = mol fraction of the nth substance listed
Settings: Liquid, Vibrating tube method

CCCCCCCO [heptan-1-ol] + CCCCOCCCC
mass density [kg/m3]
Settings | x2 = 0 | x2 = 0.1488 | x2 = 0.3201 | x2 = 0.4944 | x2 = 0.7014 | x2 = 0.8534
333.15 K, 140000 kPa | – | 857.7 | 850.3 | 843.3 | 834.8 | 829
353.15 K, 100 kPa | 778.1 | 768 | 756.6 | 745.6 | 732.4 | 723.4
353.15 K, 1000 kPa | 778.8 | 768.8 | 757.4 | 746.6 | 733.4 | 724.5
353.15 K, 5000 kPa | 782.3 | 772.5 | 761.4 | 750.8 | 738 | 729.4
353.15 K, 10000 kPa | 786.3 | 776.8 | 766 | 755.8 | 743.3 | 735
353.15 K, 15000 kPa | 790.2 | 781 | 770.4 | 760.4 | 748.4 | 740.3
353.15 K, 20000 kPa | 793.9 | 784.8 | 774.5 | 764.8 | 753.1 | 745.2
353.15 K, 25000 kPa | 797.3 | 788.5 | 778.4 | 768.9 | 757.4 | 749.8
353.15 K, 30000 kPa | 800.7 | 792.1 | 782.3 | 772.9 | 761.7 | 754.1
353.15 K, 35000 kPa | 804 | 795.5 | 785.8 | 776.7 | 765.6 | 758.3
353.15 K, 40000 kPa | 807.1 | 798.6 | 789.2 | 780.1 | 769.4 | 762.1
353.15 K, 45000 kPa | 810 | 801.8 | 792.5 | 783.7 | 773 | 765.9
353.15 K, 50000 kPa | 813 | 804.9 | 795.8 | 787.1 | 776.7 | 769.6
353.15 K, 55000 kPa | 815.8 | 807.8 | 798.8 | 790.2 | 779.9 | 773.1
353.15 K, 60000 kPa | 818.6 | 810.7 | 801.8 | 793.3 | 783.2 | 776.5
353.15 K, 65000 kPa | 821.2 | 813.5 | 804.7 | 796.4 | 786.3 | 779.7
353.15 K, 70000 kPa | 823.8 | 816.2 | 807.5 | 799.3 | 789.5 | 782.9
353.15 K, 80000 kPa | 828.7 | 821.2 | 812.8 | 804.8 | 795.2 | 788.8
353.15 K, 90000 kPa | 833.5 | 826.2 | 817.9 | 810.1 | 800.7 | 794.4
353.15 K, 100000 kPa | 837.9 | 830.8 | 822.7 | 815.1 | 805.9 | 799.8
353.15 K, 110000 kPa | 842.3 | 835.3 | 827.4 | 819.9 | 810.9 | 804.9
353.15 K, 120000 kPa | 846.4 | 839.5 | 831.8 | 824.4 | 815.6 | 809.7
353.15 K, 130000 kPa | 850.3 | 843.7 | 836 | 828.7 | 820.1 | 814.2
353.15 K, 140000 kPa | 854.3 | 847.6 | 840.1 | 833 | 824.5 | 818.7
373.15 K, 100 kPa | 761.9 | – | – | – | – | –
373.15 K, 1000 kPa | 762.8 | 752.3 | 740.4 | 729.1 | 715.4 | 706.3
373.15 K, 5000 kPa | 766.6 | 756.5 | 744.8 | 733.9 | 720.7 | 711.9
373.15 K, 10000 kPa | 771.1 | 761.3 | 750 | 739.6 | 726.7 | 718.3
373.15 K, 15000 kPa | 775.5 | 765.9 | 754.9 | 744.8 | 732.4 | 724.2
373.15 K, 20000 kPa | 779.5 | 770.2 | 759.5 | 749.6 | 737.6 | 729.7
373.15 K, 25000 kPa | 783.4 | 774.3 | 763.9 | 754.3 | 742.5 | 734.8
373.15 K, 30000 kPa | 787.1 | 778.1 | 768 | 758.6 | 747.2 | 739.6
373.15 K, 35000 kPa | 790.6 | 781.9 | 772 | 762.7 | 751.6 | 744.1
373.15 K, 40000 kPa | 794 | 785.4 | 775.7 | 766.7 | 755.7 | 748.5
373.15 K, 45000 kPa | 797.2 | 788.9 | 779.3 | 770.5 | 759.7 | 752.7
373.15 K, 50000 kPa | 800.3 | 792.1 | 782.7 | 774 | 763.4 | 756.5
373.15 K, 55000 kPa | 803.4 | 795.2 | 786 | 777.5 | 767.1 | 760.3
373.15 K, 60000 kPa | 806.3 | 798.3 | 789.2 | 780.8 | 770.6 | 763.9
373.15 K, 65000 kPa | 809.2 | 801.3 | 792.3 | 784 | 774 | 767.4
373.15 K, 70000 kPa | 811.9 | 804.1 | 795.3 | 787.1 | 777.2 | 770.6
373.15 K, 80000 kPa | 817.2 | 809.7 | 801.1 | 793.1 | 783.5 | 777.1
373.15 K, 90000 kPa | 822.3 | 814.9 | 806.5 | 798.7 | 789.3 | 783.1
373.15 K, 100000 kPa | 827 | 819.8 | 811.5 | 803.9 | 794.8 | 788.7
373.15 K, 110000 kPa | 831.6 | 824.5 | 816.5 | 809.1 | 800 | 794
373.15 K, 120000 kPa | 835.9 | 829 | 821.1 | 813.8 | 805 | 799.1
373.15 K, 130000 kPa | 840.2 | 833.4 | 825.6 | 818.4 | 809.8 | 803.9
373.15 K, 140000 kPa | 844.1 | 837.4 | 829.8 | 822.8 | 814.3 | 808.6
393.15 K, 100 kPa | 744.9 | – | – | – | – | –
393.15 K, 1000 kPa | 745.8 | 734.9 | 722.5 | 710.7 | 696.6 | 687.4
393.15 K, 5000 kPa | 750.2 | 739.7 | 727.6 | 716.3 | 702.7 | 693.9
393.15 K, 10000 kPa | 755.3 | 745.1 | 733.5 | 722.7 | 709.7 | 701.2
393.15 K, 15000 kPa | 760.1 | 750.3 | 739 | 728.6 | 716 | 708
393.15 K, 20000 kPa | 764.6 | 755.1 | 744.2 | 734 | 721.9 | 714
393.15 K, 25000 kPa | 768.8 | 759.6 | 749 | 739.1 | 727.4 | 719.7
393.15 K, 30000 kPa | 772.9 | 763.8 | 753.5 | 743.9 | 732.4 | 725
393.15 K, 35000 kPa | 776.8 | 767.9 | 757.8 | 748.5 | 737.3 | 730
393.15 K, 40000 kPa | 780.4 | 771.8 | 761.9 | 752.7 | 741.8 | 734.8
393.15 K, 45000 kPa | 783.9 | 775.4 | 765.8 | 756.8 | 746 | 739.1
393.15 K, 50000 kPa | 787.3 | 779 | 769.4 | 760.7 | 750.1 | 743.4
393.15 K, 55000 kPa | 790.7 | 782.5 | 773.2 | 764.5 | 754.2 | 747.5
393.15 K, 60000 kPa | 793.8 | 785.7 | 776.5 | 768 | 757.9 | 751.3
393.15 K, 65000 kPa | 796.8 | 788.9 | 779.8 | 771.4 | 761.5 | 755
393.15 K, 70000 kPa | 799.8 | 792 | 783.1 | 774.9 | 765 | 758.7
393.15 K, 80000 kPa | 805.5 | 797.8 | 789.2 | 781.2 | 771.6 | 765.4
393.15 K, 90000 kPa | 810.9 | 803.5 | 795 | 787.2 | 777.9 | 771.8
393.15 K, 100000 kPa | 815.9 | 808.6 | 800.4 | 792.8 | 783.6 | 777.7
393.15 K, 110000 kPa | 820.8 | 813.7 | 805.6 | 798.2 | 789.3 | 783.5
393.15 K, 120000 kPa | 825.3 | 818.3 | 810.4 | 803.1 | 794.3 | 788.7
393.15 K, 130000 kPa | 829.8 | 822.9 | 815.1 | 808 | 799.4 | 793.8
393.15 K, 140000 kPa | 834 | 827.3 | 819.7 | 812.7 | 804.2 | 798.7
